{"source": "patent US8686000B2", "about": "“Herbicidally active ketosultams and diketopyridines” (Bayer Cropscience AG, priority 2010, dated 2014)", "data": [{"tested_on": "corn", "assay": "Post-emergence compatibility with crop plants", "format": "in vivo", "details": "320 grams per hectare, scored visually after 3 to 4 weeks", "method": "Post-emergence herbicidal action against weed plants and compatibility with crop plants Seeds of monocotyledonous and dicotyledonous weed plants are set out in cardboard pots in sandy loam soil, covered with soil, and cultivated under glass under good growth conditions. Two to three weeks after sowing, the trial plants are treated at the three-leaf stage. The inventive compounds, formulated as wettable powders or as emulsifiable concentrates, are sprayed onto the surface of the green parts of the plants, at a water application rate of 600 to 800 I/ha (converted). After the trial plants have stood for 3 to 4 weeks under glass under optimum growth conditions, the effect of the inventive compounds is scored visually.", "values": [{"smiles": "CCc1cc(Cl)cc(Br)c1-c1c(O)c2scnc2n(CC(F)F)c1=O", "note": "[I-a-36]", "damage in corn": "do not exhibit any damage"}, {"smiles": "Cc1cc(C)c(-c2c(O)c3scnc3n(CC(F)F)c2=O)c(C)c1", "note": "[I-a-37]", "damage in corn": "do not exhibit any damage"}, {"smiles": "C#CCn1c(=O)c(-c2c(Cl)cccc2Cl)c(O)c2scnc21", "note": "[I-a-44]", "damage in corn": "do not exhibit any damage"}, {"smiles": "O=c1c(-c2c(Cl)ccc(C3CC3)c2Cl)c(O)c2scnc2n1CC(F)F", "note": "[I-a-83]", "damage in corn": "do not exhibit any damage"}, {"smiles": "Cc1ccc(Cl)c(-c2c(O)c3scnc3n(CC(F)(F)F)c2=O)c1Cl", "note": "[I-a-86]", "damage in corn": "do not exhibit any damage"}, {"smiles": "Cc1c(Br)ccc(Cl)c1-c1c(O)c2scnc2n(C)c1=O", "note": "[I-a-93]", "damage in corn": "do not exhibit any damage"}, {"smiles": "C[N+](C)(C)C.Cc1cc(C)c(-c2c([O-])c3scnc3n(CC(F)F)c2=O)c(C)c1", "note": "[I-g-5]", "damage in corn": "do not exhibit any damage"}, {"smiles": "C#CCOc1c(-c2ccccc2C(F)(F)F)c(=O)n(CC#C)c2ncsc12", "note": "[I-h-11]", "damage in corn": "do not exhibit any damage"}]}, {"tested_on": "oilseed rape", "assay": "Pre-emergence compatibility with crop plants", "format": "in vivo", "details": "320 grams per hectare, scored visually after 3 to 4 weeks", "from_the_text": "(§1) Pre-emergence Herbicidal Action against Weed Plants and Compatibility with Crop Plants\n(§2) Seeds or rhizome sections of mono- and dicotyledonous weed plants are set out in pots of 9 to 13 cm in diameter in sandy loam soil, and are covered with soil. The herbicides, formulated as emulsifiable concentrates or dusting products, are applied to the surface of the covering earth in different doses in the form of aqueous dispersions or suspensions or emulsions, at a water application rate of 300 to 800 I/ha (converted). The pots are then maintained under glass under optimum conditions for the further cultivation of the plants. After the trial plants have stood for 3 to 4 weeks under glass under optimum growth conditions, the effect of the inventive compounds is scored visually.", "values": [{"smiles": "C=CCn1c(=O)c(-c2c(C)cc(C)cc2C)c(O)c2scnc21", "note": "[I-a-2, 4-allyl-7-hydroxy-6-mesityl[1,3]thiazolo[4,5-b]pyridin-5(4H)-one]", "damage in oilseed rape": "do not exhibit any damage"}, {"smiles": "C=CCn1c(=O)c(-c2c(Br)cc(Cl)cc2CC)c(O)c2cn(C)nc21", "note": "[I-a-28]", "damage in oilseed rape": "do not exhibit any damage"}, {"smiles": "CCc1cc(Cl)cc(Br)c1-c1c(O)c2cn(C)nc2n(CC(F)F)c1=O", "note": "[I-a-43]", "damage in oilseed rape": "do not exhibit any damage"}]}, {"tested_on": "corn", "assay": "Pre-emergence compatibility with crop plants", "format": "in vivo", "details": "320 grams per hectare, scored visually after 3 to 4 weeks", "from_the_text": "as §1, §2", "values": [{"smiles": "CCc1cc(Cl)cc(Br)c1-c1c(O)c2scnc2n(CC(F)F)c1=O", "note": "[I-a-36]", "damage in corn": "do not exhibit any damage"}, {"smiles": "C#CCn1c(=O)c(-c2c(Cl)cccc2Cl)c(O)c2scnc21", "note": "[I-a-44]", "damage in corn": "do not exhibit any damage"}, {"smiles": "O=c1c(-c2c(Cl)ccc(Br)c2Cl)c(O)c2scnc2n1CC(F)F", "note": "[I-a-75]", "damage in corn": "do not exhibit any damage"}, {"smiles": "Cc1ccc(Cl)c(-c2c(O)c3scnc3n(CC(F)F)c2=O)c1Cl", "note": "[I-a-89]", "damage in corn": "do not exhibit any damage"}, {"smiles": "Cc1c(Br)ccc(Cl)c1-c1c(O)c2scnc2n(CC(F)F)c1=O", "note": "[I-a-94]", "damage in corn": "do not exhibit any damage"}, {"smiles": "Cc1cc(Br)cc(C)c1-c1c(O)c2scnc2n(CC(F)F)c1=O", "note": "[I-a-97]", "damage in corn": "do not exhibit any damage"}, {"smiles": "C=CCn1c(=O)c(-c2c(Br)cc(Cl)cc2CC)c(OC(=O)C(C)(C)C)c2scnc21", "note": "[I-b-22]", "damage in corn": "do not exhibit any damage"}, {"smiles": "CCOC(=O)Oc1c(-c2c(C)cc(Br)cc2CC)c(=O)n(C)c2ncsc12", "note": "[I-c-38]", "damage in corn": "do not exhibit any damage"}]}]}
